# Reference: publication PMC9794833, “Ligand recognition and activation of neuromedin U receptor 2” (Nature Communications, 2022)
# Key:
# NMU2 [1] = target: T1, NMU2 (Homo sapiens, UniProt Q9GZQ4); assay: IP accumulation assay (IP-One Gq kit), WT NMU2; assay type: cell-based; details: 10 μM R-PSOP
# T1 construct: HA signal peptide (N); expressed in transfected cells; host or cells: HEK 293F
# Description: (§1) NMU2 constructs of WT and mutants were constructed into PTT5 vector (Invitrogen), as mentioned above. HEK 293F cells were transiently transfected with WT or mutants with total of 2000 ng plasmid DNA using transfection reagent (PEI MAX 2000, Polysciences) and cultivated at 37 °C with 5% CO2. Cells were collected after 48-h transfection. IP accumulation was tested by IP-One Gq assay kit (Cisbio Bioassays, 62IPAPEJ) following the instruction manual. In general, cells were resuspended with 1× HBSS buffer containing 20 mM LiCl (stimulation buffer) and seeded into the white 384-well microplates (Proxi Plate^TM-384 Plus, PerkinElmer) with a density of 20,000 per well. Cells were preincubated with 10^−5 M R-PSOP (provided by Boehringer Ingelheim company, Germany) and gradient concentration from 10^−4 to 10^−11 M of NMU-25 or gradient concentration 10^−4 to 10^−11 M of NMU-25 alone in stimulation buffer at 37 °C for 90 min. The cryptate-labeled anti-IP1 monoclonal antibody and d2-labeled IP1 were diluted with lysis & detection buffer (1:20) and added to each well by 3 μl, respectively. The plates were incubated at room temperature for 60 minutes and then read in a Synerg^TM H1 microplate reader (BioTek) with excitation at 330 nm and emission at 620 and 665 nm. The IP1 production was calculated by a standard dose–response curve and analyzed by GraphPad Prism 8.0.
# NMU2 E102A = target: T2, NMU2 E102A (Homo sapiens, UniProt Q9GZQ4, E102A); assay: IP accumulation assay, NMU2 mutant E102A; assay type: cell-based; details: 10 μM R-PSOP
# T2 construct: HA signal peptide (N); expressed in transfected cells; host or cells: HEK 293F
# Description: as §1
# NMU2 E127A = target: T3, NMU2 E127A (Homo sapiens, UniProt Q9GZQ4, E127A); assay: IP accumulation assay, NMU2 mutant E127A; assay type: cell-based; details: 10 μM R-PSOP
# T3 construct: HA signal peptide (N); expressed in transfected cells; host or cells: HEK 293F
# Description: as §1
# NMU2 F131L = target: T4, NMU2 F131L (Homo sapiens, UniProt Q9GZQ4, F131L); assay: IP accumulation assay, NMU2 mutant F131L; assay type: cell-based; details: 10 μM R-PSOP
# T4 construct: HA signal peptide (N); expressed in transfected cells; host or cells: HEK 293F, transient transfection, PTT5 vector
# Description: as §1
# NMU2 F177C = target: T5, NMU2 F177C (Homo sapiens, UniProt Q9GZQ4, F177C); assay: IP accumulation assay, NMU2 mutant F177C; assay type: cell-based; details: 10 μM R-PSOP
# T5 construct: HA signal peptide (N); expressed in transfected cells; host or cells: HEK 293F, transient transfection, PTT5 vector
# Description: as §1
# NMU2 F224A = target: T6, NMU2 F224A (Homo sapiens, UniProt Q9GZQ4, F224A); assay: IP accumulation assay, NMU2 mutant F224A; assay type: cell-based; details: 10 μM R-PSOP
# T6 construct: HA signal peptide (N); expressed in transfected cells; host or cells: HEK 293F, transient transfection, PTT5 vector
# Description: as §1
# NMU2 H285A = target: T7, NMU2 H285A (Homo sapiens, UniProt Q9GZQ4, H285A); assay: IP accumulation assay, NMU2 mutant H285A; assay type: cell-based; details: 10 μM R-PSOP
# T7 construct: HA signal peptide (N); expressed in transfected cells; host or cells: HEK 293F, transient transfection, PTT5 vector
# Description: as §1
# NMU2 [2] = details: cited from earlier work
# T5 sequence (Q9GZQ4 whole entry F177C): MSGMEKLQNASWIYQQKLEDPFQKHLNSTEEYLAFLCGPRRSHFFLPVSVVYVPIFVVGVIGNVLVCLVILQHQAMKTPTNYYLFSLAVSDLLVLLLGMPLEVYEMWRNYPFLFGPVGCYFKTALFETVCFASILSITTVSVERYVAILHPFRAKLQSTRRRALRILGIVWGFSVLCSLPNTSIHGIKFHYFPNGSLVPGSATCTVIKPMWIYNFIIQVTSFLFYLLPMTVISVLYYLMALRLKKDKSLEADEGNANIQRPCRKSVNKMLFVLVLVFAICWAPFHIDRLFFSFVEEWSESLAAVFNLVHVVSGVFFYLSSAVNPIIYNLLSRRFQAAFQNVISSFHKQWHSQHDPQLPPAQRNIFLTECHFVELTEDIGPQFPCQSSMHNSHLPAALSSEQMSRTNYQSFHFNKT
# T2 sequence (Q9GZQ4 whole entry E102A): as the sequence (Q9GZQ4 whole entry F177C) above, with E102A, C177F counted along it
# T4 sequence (Q9GZQ4 whole entry F131L): as the sequence (Q9GZQ4 whole entry F177C) above, with F131L, C177F counted along it
# T6 sequence (Q9GZQ4 whole entry F224A): as the sequence (Q9GZQ4 whole entry F177C) above, with C177F, F224A counted along it
# T3 sequence (Q9GZQ4 whole entry E127A): as the sequence (Q9GZQ4 whole entry F177C) above, with E127A, C177F counted along it
# T1 sequence (Q9GZQ4 whole entry): as the sequence (Q9GZQ4 whole entry F177C) above, with C177F counted along it
# T7 sequence (Q9GZQ4 whole entry H285A): as the sequence (Q9GZQ4 whole entry F177C) above, with C177F, H285A counted along it
smiles,measurement,setting,value
O=C(Nc1ccccc1)Nc1cnc2c(c1)C[C@@]1(CN3CCC1CC3)O2 [R-PSOP],Ratio EC50(NmU-25 + R-PSOP)/EC50(NmU-25),NMU2 [1],13
same,Ratio change EC50 ratio (WT)/EC50 ratio (mutant),NMU2 [1],1 fold
same,Ratio EC50(NmU-25 + R-PSOP)/EC50(NmU-25),NMU2 E102A,2
same,Ratio change EC50 ratio (WT)/EC50 ratio (mutant),NMU2 E102A,6.5 fold
same,antagonist inhibition effect of R-PSOP (in words),NMU2 E102A; IP accumulation,abolished
same,Ratio EC50(NmU-25 + R-PSOP)/EC50(NmU-25),NMU2 E127A,2
same,Ratio change EC50 ratio (WT)/EC50 ratio (mutant),NMU2 E127A,6.5 fold
same,Ratio EC50(NmU-25 + R-PSOP)/EC50(NmU-25),NMU2 F131L,3
same,Ratio change EC50 ratio (WT)/EC50 ratio (mutant),NMU2 F131L,4 fold
same,antagonistic effect of R-PSOP (in words),NMU2 F131L; IP accumulation,decreased the antagonistic effect of R-PSOP significantly
same,Ratio EC50(NmU-25 + R-PSOP)/EC50(NmU-25),NMU2 F177C,8
same,Ratio change EC50 ratio (WT)/EC50 ratio (mutant),NMU2 F177C,1.6 fold
same,antagonistic effect of R-PSOP (in words),NMU2 F177C; IP accumulation,decreased the antagonistic effect of R-PSOP significantly
same,Ratio EC50(NmU-25 + R-PSOP)/EC50(NmU-25),NMU2 F224A,4
same,Ratio change EC50 ratio (WT)/EC50 ratio (mutant),NMU2 F224A,3 fold
same,antagonist inhibition effect of R-PSOP (in words),NMU2 F224A; IP accumulation,abolished
same,Ratio EC50(NmU-25 + R-PSOP)/EC50(NmU-25),NMU2 H285A,20
same,Ratio change EC50 ratio (WT)/EC50 ratio (mutant),NMU2 H285A,0.65 fold
same,Ki,NMU2 [2],52 nM
